From US10005816B2, “Peptides and their use in food and beverage” (priority 2014, dated 2018)
Where no end group is shown, it is not given here.

Assay: Sensory evaluation of peptide additive in coffee brew by five expert panelists (Example 4)
Conditions: 40 ppm additive in coffee brew; FOLGERS Classic Decaf roast and ground coffee; versus control brew without additive
Protocol: Coffee brews were prepared using a commercially available roast and ground coffee product (FOLGERS® brand Classic Decaf coffee) using a standard automatic drip coffee brewer (i.e., MR. COFFEE®). The brewing process was carried out as instructed on the coffee package. Each single peptide in Example 1 and peptide compositions in Examples 2 and 3 were mixed into to the coffee brew. Five expert panelists evaluated the effect of peptide additive on coffee flavor profile.

| Substance | Sensory Evaluation |
| --- | --- |
| LACHLL [Peptide (Id)] | Strange non-coffee taste charcoal, |
| Pro-Thr-Pro-Leu-Leu (PTPLL) [Peptide (Ia)] | Stronger than control, very bitter |
| Pro-Pro-Thr-Leu-Leu (PPTLL) [Peptide (Ic)] | Stronger than control, bitter |
| EELLPE [Peptide (Ie)] | Stronger than control, fuller |
